Test system: Metabolism protein genes
Assay: DNA chip mRNA expression in yeast, metabolism protein genes (Table 7)
Format: cell-based, Saccharomyces cerevisiae S288C
Summary of the method: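 First, S288C yeast grown in YPD at 25° C. are dosed in log phase with one toxicant (growth-inhibiting, not lethal) for 2 h. Next, total RNA is extracted and poly(A) mRNA isolated and reverse-transcribed with Cy3/Cy5-dUTP. Finally, whole-genome chip fluorescence is read relative to unexposed cells.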

COc1cc(CNC(=O)CCCCC=CC(C)C)ccc1O [(12), 8-methyl-N-vanillyl-6-nonenamide]
0.4: level of expressed mRNA in the presence/in the absence of chemical substance (yeast gene YLR058C)
1.1: The level of expressed mRNA in the presence of chemical substance/The level of expressed mRNA in the absence of chemical substance (yeast gene YMR008C) | The level of expressed mRNA in the presence of chemical substance/The level of expressed mRNA in the absence of chemical substance (yeast gene YMR020W) | level of expressed mRNA in the presence/in the absence of chemical substance (yeast gene YMR205C) | The level of expressed mRNA in the presence of chemical substance/The level of expressed mRNA in the absence of chemical substance (yeast gene YNL104C) | level of expressed mRNA in the presence/in the absence of chemical substance (yeast gene YNL192W) | The level of expressed mRNA in the presence of chemical substance/The level of expressed mRNA in the absence of chemical substance (yeast gene YNR033W) | The level of expressed mRNA in the presence of chemical substance/The level of expressed mRNA in the absence of chemical substance (yeast gene YOL126C) | The level of expressed mRNA in the presence of chemical substance/The level of expressed mRNA in the absence of chemical substance (yeast gene YOR099W) | level of expressed mRNA in the presence/in the absence of chemical substance (yeast gene YPL135W)
1.3: level of expressed mRNA in the presence/in the absence of chemical substance (yeast gene YKL060C) | The level of expressed mRNA in the presence of chemical substance/The level of expressed mRNA in the absence of chemical substance (yeast gene YKL091C) | The level of expressed mRNA in the presence of chemical substance/The level of expressed mRNA in the absence of chemical substance (yeast gene YML070W) | The level of expressed mRNA in the presence of chemical substance/The level of expressed mRNA in the absence of chemical substance (yeast gene YMR271C) | The level of expressed mRNA in the presence of chemical substance/The level of expressed mRNA in the absence of chemical substance (yeast gene YNL012W) | The level of expressed mRNA in the presence of chemical substance/The level of expressed mRNA in the absence of chemical substance (yeast gene YOL058W) | level of expressed mRNA in the presence/in the absence of chemical substance (yeast gene YOL086C) | level of expressed mRNA in the presence/in the absence of chemical substance (yeast gene YOR176W) | The level of expressed mRNA in the presence of chemical substance/The level of expressed mRNA in the absence of chemical substance (yeast gene YPR167C)
0.9: The level of expressed mRNA in the presence of chemical substance/The level of expressed mRNA in the absence of chemical substance (yeast gene YKL213C) | level of expressed mRNA in the presence/in the absence of chemical substance (yeast gene YLR056W) | The level of expressed mRNA in the presence of chemical substance/The level of expressed mRNA in the absence of chemical substance (yeast gene YLR273C) | The level of expressed mRNA in the presence of chemical substance/The level of expressed mRNA in the absence of chemical substance (yeast gene YLR348C) | level of expressed mRNA in the presence/in the absence of chemical substance (yeast gene YMR015C) | level of expressed mRNA in the presence/in the absence of chemical substance (yeast gene YMR261C) | The level of expressed mRNA in the presence of chemical substance/The level of expressed mRNA in the absence of chemical substance (yeast gene YNL045W) | The level of expressed mRNA in the presence of chemical substance/The level of expressed mRNA in the absence of chemical substance (yeast gene YNL331C) | level of expressed mRNA in the presence/in the absence of chemical substance (yeast gene YOL156W) | The level of expressed mRNA in the presence of chemical substance/The level of expressed mRNA in the absence of chemical substance (yeast gene YOR130C) | level of expressed mRNA in the presence/in the absence of chemical substance (yeast gene YOR251C)
1.5: The level of expressed mRNA in the presence of chemical substance/The level of expressed mRNA in the absence of chemical substance (yeast gene YKL152C) | The level of expressed mRNA in the presence of chemical substance/The level of expressed mRNA in the absence of chemical substance (yeast gene YKR039W)
1.8: The level of expressed mRNA in the presence of chemical substance/The level of expressed mRNA in the absence of chemical substance (yeast gene YML054C) | The level of expressed mRNA in the presence of chemical substance/The level of expressed mRNA in the absence of chemical substance (yeast gene YNL231C)
0.7: level of expressed mRNA in the presence/in the absence of chemical substance (yeast gene YKR034W) | level of expressed mRNA in the presence/in the absence of chemical substance (yeast gene YLR006C) | The level of expressed mRNA in the presence of chemical substance/The level of expressed mRNA in the absence of chemical substance (yeast gene YLR307W) | level of expressed mRNA in the presence/in the absence of chemical substance (yeast gene YMR083W) | The level of expressed mRNA in the presence of chemical substance/The level of expressed mRNA in the absence of chemical substance (yeast gene YNL322C) | level of expressed mRNA in the presence/in the absence of chemical substance (yeast gene YOR108W) | level of expressed mRNA in the presence/in the absence of chemical substance (yeast gene YOR348C) | level of expressed mRNA in the presence/in the absence of chemical substance (yeast gene YPL148C) | level of expressed mRNA in the presence/in the absence of chemical substance (yeast gene YPR113W)
1.9: The level of expressed mRNA in the presence of chemical substance/The level of expressed mRNA in the absence of chemical substance (yeast gene YOL153C)
0.8: The level of expressed mRNA in the presence of chemical substance/The level of expressed mRNA in the absence of chemical substance (yeast gene YJR148W) | level of expressed mRNA in the presence/in the absence of chemical substance (yeast gene YKL148C) | level of expressed mRNA in the presence/in the absence of chemical substance (yeast gene YMR011W) | The level of expressed mRNA in the presence of chemical substance/The level of expressed mRNA in the absence of chemical substance (yeast gene YMR296C) | level of expressed mRNA in the presence/in the absence of chemical substance (yeast gene YNL025C) | The level of expressed mRNA in the presence of chemical substance/The level of expressed mRNA in the absence of chemical substance (yeast gene YNL106C) | The level of expressed mRNA in the presence of chemical substance/The level of expressed mRNA in the absence of chemical substance (yeast gene YNR059W) | The level of expressed mRNA in the presence of chemical substance/The level of expressed mRNA in the absence of chemical substance (yeast gene YOL165C) | level of expressed mRNA in the presence/in the absence of chemical substance (yeast gene YOR085W) | level of expressed mRNA in the presence/in the absence of chemical substance (yeast gene YOR142W) | level of expressed mRNA in the presence/in the absence of chemical substance (yeast gene YPR165W)
0.5: The level of expressed mRNA in the presence of chemical substance/The level of expressed mRNA in the absence of chemical substance (yeast gene YLR300W) | level of expressed mRNA in the presence/in the absence of chemical substance (yeast gene YOR002W) | level of expressed mRNA in the presence/in the absence of chemical substance (yeast gene YOR128C)
1.7: The level of expressed mRNA in the presence of chemical substance/The level of expressed mRNA in the absence of chemical substance (yeast gene YMR105C) | level of expressed mRNA in the presence/in the absence of chemical substance (yeast gene YOR178C)
1.2: level of expressed mRNA in the presence/in the absence of chemical substance (yeast gene YLR354C) | The level of expressed mRNA in the presence of chemical substance/The level of expressed mRNA in the absence of chemical substance (yeast gene YML100W) | level of expressed mRNA in the presence/in the absence of chemical substance (yeast gene YMR323W) | The level of expressed mRNA in the presence of chemical substance/The level of expressed mRNA in the absence of chemical substance (yeast gene YNL332W) | level of expressed mRNA in the presence/in the absence of chemical substance (yeast gene YOR103C) | The level of expressed mRNA in the presence of chemical substance/The level of expressed mRNA in the absence of chemical substance (yeast gene YOR347C) | The level of expressed mRNA in the presence of chemical substance/The level of expressed mRNA in the absence of chemical substance (yeast gene YPR026W) | level of expressed mRNA in the presence/in the absence of chemical substance (yeast gene YPR183W)
1.0: The level of expressed mRNA in the presence of chemical substance/The level of expressed mRNA in the absence of chemical substance (yeast gene YJR155W) | The level of expressed mRNA in the presence of chemical substance/The level of expressed mRNA in the absence of chemical substance (yeast gene YKL035W) | level of expressed mRNA in the presence/in the absence of chemical substance (yeast gene YKL157W) | The level of expressed mRNA in the presence of chemical substance/The level of expressed mRNA in the absence of chemical substance (yeast gene YKL215C) | The level of expressed mRNA in the presence of chemical substance/The level of expressed mRNA in the absence of chemical substance (yeast gene YLL058W) | level of expressed mRNA in the presence/in the absence of chemical substance (yeast gene YLR081W) | The level of expressed mRNA in the presence of chemical substance/The level of expressed mRNA in the absence of chemical substance (yeast gene YLR299W) | level of expressed mRNA in the presence/in the absence of chemical substance (yeast gene YLR304C) | The level of expressed mRNA in the presence of chemical substance/The level of expressed mRNA in the absence of chemical substance (yeast gene YNL169C) | The level of expressed mRNA in the presence of chemical substance/The level of expressed mRNA in the absence of chemical substance (yeast gene YNR019W) | level of expressed mRNA in the presence/in the absence of chemical substance (yeast gene YOL108C) | The level of expressed mRNA in the presence of chemical substance/The level of expressed mRNA in the absence of chemical substance (yeast gene YOR336W) | The level of expressed mRNA in the presence of chemical substance/The level of expressed mRNA in the absence of chemical substance (yeast gene YPL017C) | level of expressed mRNA in the presence/in the absence of chemical substance (yeast gene YPL057C)
0.6: level of expressed mRNA in the presence/in the absence of chemical substance (yeast gene YJR143C) | level of expressed mRNA in the presence/in the absence of chemical substance (yeast gene YLR089C) | The level of expressed mRNA in the presence of chemical substance/The level of expressed mRNA in the absence of chemical substance (yeast gene YLR180W) | level of expressed mRNA in the presence/in the absence of chemical substance (yeast gene YLR284C) | level of expressed mRNA in the presence/in the absence of chemical substance (yeast gene YLR372W) | level of expressed mRNA in the presence/in the absence of chemical substance (yeast gene YML022W) | The level of expressed mRNA in the presence of chemical substance/The level of expressed mRNA in the absence of chemical substance (yeast gene YMR189W) | level of expressed mRNA in the presence/in the absence of chemical substance (yeast gene YOL116W)
1.6: The level of expressed mRNA in the presence of chemical substance/The level of expressed mRNA in the absence of chemical substance (yeast gene YKL104C)
1.4: level of expressed mRNA in the presence/in the absence of chemical substance (yeast gene YLR044C) | level of expressed mRNA in the presence/in the absence of chemical substance (yeast gene YPL028W)
